Assay results published in patent publication US11117875B2, “Crystalline forms, preparation methods and pharmaceutical compositions of ozanimod” (Hangzhou SoliPharma Co., Ltd., priority 2016, dated 2021).
Read-outs that look alike come from different tables or passages of the source.

Columns and labels:
Type in all cases: physicochemical
[1] = Form stability test at 50° C.; conditions: for Crystalline form, storage time 0 day / Form stability after having been placed at 50° C. for 1 day: 50° C.; for Crystalline form, storage time 0 day: 0 day (start); for Crystalline form, storage time 5 days: placed at 50° C.
Experimental: The known ozanimod solid of Preparation Example 1 and ozanimod Form 1 of Example 1 were tested in form stability test. The procedures are detailed as follows: placed about 20 mg of the above two samples respectively at 50° C., and studied their form stability.

[2] = Storage at room temperature in desiccators with relative humidity ranging from 10% to 90%; conditions: relative humidity 10% to 90%
[3] = Form stability in water (stirred in water)
Experimental: The form stability in water of the known ozanimod of Preparation Example 1 and ozanimod Form 2 of Example 10 were compared. The procedures are detailed as follows: took about 20 mg of the above two samples respectively, stirred in water, and studied the form stability.

[4] = Form stability under 97% relative humidity; conditions: for Crystalline form, storage time 5 days: 97% RH environment; for Crystalline form, storage time 0 day: 0 day (start)
Experimental: The known ozanimod of Preparation Example 1 and ozanimod Form 3 of Example 19 were compared in their form stability under 97% relative humidity. The procedures are detailed as follows: placed about 20 mg of the above two samples respectively at 97% RH environment, and studied their crystalline form stability.

[5] = listed as known amorphous form of ozanimod

CC(C)Oc1ccc(-c2nc(-c3cccc4c3CC[C@@H]4NCCO)no2)cc1C#N [Ozanimod Form 1, 5-[3-[(1S)-2,3-dihydro-1-(2-hydroxyethylamino)-1H-inden-4-yl]-1,2,4-oxadiazol-5-yl]-2-isopropoxybenzonitrile]
Crystalline form, storage time 0 day [1]: Form 1 | Form stability after having been placed at 50° C. for 1 day [1]: remained unchanged | Crystalline form, storage time 5 days [1]: Remained Form 1 | Crystalline form, storage time 5 days ([1]; listed as ozanimod Form 1): more stable | Appearance, XRPD and melting point after 4 months storage [2]: remained unchanged

CC(C)Oc1ccc(-c2nc(-c3cccc4c3CC[C@@H]4NCCO)no2)cc1C#N [Ozanimod Form 2, 5-[3-[(1S)-2,3-dihydro-1-(2-hydroxyethylamino)-1H-inden-4-yl]-1,2,4-oxadiazol-5-yl]-2-isopropoxybenzonitrile]
Crystalline form after stirred in water for 3 days [3]: Remained Form 2 | Crystalline form after stirred in water for 3 days ([3]; listed as Form 2): remained unchanged | Crystalline form after stirred in water for 3 days ([3]; listed as ozanimod Form 2): remained unchanged | Appearance, XRPD and melting point after 4 months storage [2]: remained unchanged

CC(C)Oc1ccc(-c2nc(-c3cccc4c3CC[C@@H]4NCCO)no2)cc1C#N [Ozanimod Form 3, 5-[3-[(1S)-2,3-dihydro-1-(2-hydroxyethylamino)-1H-inden-4-yl]-1,2,4-oxadiazol-5-yl]-2-isopropoxybenzonitrile]
Crystalline form, storage time 5 days [4]: Remained Form 3 | Crystalline form, storage time 0 day ([4]; 97% RH): Form 3 | Form stability after storage at 97% RH for 10 days ([4]; 97% RH, 10 days): remained unchanged | Form stability at room temperature and 97% relative humidity for 3 days [4]: remained unchanged

CC(C)Oc1ccc(-c2nc(-c3cccc4c3CC[C@@H]4NCCO)no2)cc1C#N [The known ozanimod, 5-[3-[(1S)-2,3-dihydro-1-(2-hydroxyethylamino)-1H-inden-4-yl]-1,2,4-oxadiazol-5-yl]-2-isopropoxybenzonitrile, reference compound]
Crystalline form after stirred in water for 3 days [3]: Transformed to Form 2 | Crystalline form after stirred in water for 3 days [3, 5]: turned to Form 2 | Crystalline form, storage time 0 day [1]: Amorphous | Form stability after having been placed at 50° C. for 1 day [1, 5]: showed diffraction peaks | Crystalline form, storage time 5 days [1]: Weak diffraction | Crystalline form, storage time 5 days [4]: Weak diffraction | Crystalline form, storage time 0 day ([4]; 97% RH): Amorphous | Form stability at room temperature and 97% relative humidity for 3 days [4, 5]: turned to Form 3
